Measurements as given in the supplement of paper PMC13380429.

How the values were obtained:
[1] = tested on: A549-ACE2 infected with SARS-CoV-2; test: morphology score (similarity to uninfected cells); higher = more like uninfected cells; conditions: 24 h
Vero E6 [2] = test: relative viability EC50 (midpoint between 100% and the lowest measured viability); higher = less toxic; conditions: 72 h
U2OS [3] = test: as above; conditions: 72 h
HepG2 [4] = test: as above; conditions: 72 h
Calu-3 [5] = test: as above; conditions: 72 h
Caco-2 [6] = test: as above; conditions: 72 h
[7] = tested on: A549-ACE2 infected with SARS-CoV-2; test: cell count relative to DMSO; higher = less toxic; conditions: 24 h
[8] = tested on: A549-ACE2 infected with SARS-CoV-2; test: SARS-CoV-2 infection rate relative to DMSO; higher = more infection; conditions: 24 h
Vero E6 [9] = test: drug sensitivity score (DSS) for viability; higher = more toxic; extreme values may be limits of the assay; conditions: 72 h
U2OS [10] = test: as above; conditions: 72 h
HepG2 [11] = test: as above; conditions: 72 h
Calu-3 [12] = test: as above; conditions: 72 h
Caco-2 [13] = test: as above; conditions: 72 h
Vero E6 [14] = test: cell viability relative to DMSO; higher = less toxic; conditions: 72 h
U2OS [15] = test: as above; conditions: 72 h
HepG2 [16] = test: as above; conditions: 72 h
Calu-3 [17] = test: as above; conditions: 72 h
Caco-2 [18] = test: as above; conditions: 72 h
A549-ACE2 = test: drug-induced phospholipidosis relative to tamoxifen; higher = more phospholipidosis

CO[C@H]1C[C@H](O[C@@H]2/C(C)=C/C[C@@H]3C[C@@H](C[C@]4(CC[C@H](C)[C@@H](C5CCCCC5)O4)O3)OC(=O)[C@@H]3C=C(C)/C(=N/O)[C@H]4OC/C(=C\C=C\[C@@H]2C)[C@]43O)O[C@@H](C)[C@@H]1O [selamectin]
Conditions	SARS-CoV-2 infection rate, [8] [%]	cell count, [7] [%]	cell viability, Caco-2 [18] [%]	cell viability, Calu-3 [17] [%]	cell viability, HepG2 [16] [%]	cell viability, U2OS [15] [%]	cell viability, Vero E6 [14] [%]	morphology score, [1]
1 nM	–	–	112	101	113	103	104	–
10 nM	–	–	119	106	120	98	104	–
100 nM	–	–	105	96.2	117	103	104	–
0.3 µM	103	96	–	–	–	–	–	-0.14
1000 nM	–	–	79.9	104	121	98.8	107	–
3 µM	79	105	–	–	–	–	–	0.43
10 µM	48	93	–	–	–	–	–	0.75
10000 nM	–	–	86.5	91.2	84.1	90.4	86.7	–
30 µM	15	111	–	–	–	–	–	0.7

Conditions	drug sensitivity score	relative viability EC50 [nM]
Caco-2 [6]	–	> 10000
Caco-2 [13]	2.5	–
Calu-3 [5]	–	> 10000
Calu-3 [12]	0	–
HepG2 [4]	–	> 10000
HepG2 [11]	0.1	–
U2OS [3]	–	> 10000
U2OS [10]	0	–
Vero E6 [2]	–	> 10000
Vero E6 [9]	0	–

O=C(CCCN1CCC2(CC1)C(=O)NCN2c1ccccc1)c1ccc(F)cc1 [spiperone]
Conditions	SARS-CoV-2 infection rate, [8] [%]	cell count, [7] [%]	cell viability, Caco-2 [18] [%]	cell viability, Calu-3 [17] [%]	cell viability, HepG2 [16] [%]	cell viability, U2OS [15] [%]	cell viability, Vero E6 [14] [%]	morphology score, [1]
1 nM	–	–	99.3	105	91.6	100	99.8	–
10 nM	–	–	92.7	84.1	108	96.6	103	–
100 nM	–	–	96.2	108	98.7	101	96.1	–
0.3 µM	102	99	–	–	–	–	–	-0.22
1000 nM	–	–	99.3	103	91.1	98.5	95.8	–
3 µM	86	114	–	–	–	–	–	0.32
10 µM	31	97	–	–	–	–	–	0.19
10000 nM	–	–	71.9	74.1	62.5	94.6	98.3	–
30 µM	35	77	–	–	–	–	–	0.03

drug-induced phospholipidosis [%], A549-ACE2
Conditions	0.3 µM	0.833333 µM	3.33333 µM	6.66667 µM	10 µM	30 µM
24 h	-1.11	-1.19	0.56	7.38	19.1	21
48 h	1.78	-0.92	2.83	6.18	13.4	–
72 h	1.57	-0.0916	2.59	6.4	14.9	–

Conditions	drug sensitivity score	relative viability EC50 [nM]
Caco-2 [13]	1.3	–
Calu-3 [12]	0.8	–
HepG2 [11]	3.2	–
U2OS [3]	–	> 10000
U2OS [10]	0	–
Vero E6 [2]	–	> 10000
Vero E6 [9]	0	–

N#Cc1cn([C@@H]2O[C@H](CO)[C@@H](O)[C@H]2O)c2ncnc(N)c12 [toyocamycin]
Conditions	drug sensitivity score	relative viability EC50 [nM]
Caco-2 [6]	–	2.5
Caco-2 [13]	29.7	–
Calu-3 [5]	–	24.4
Calu-3 [12]	27.7	–
HepG2 [4]	–	9.8
HepG2 [11]	35.6	–
U2OS [3]	–	12.5
U2OS [10]	34.2	–
Vero E6 [2]	–	19.4
Vero E6 [9]	32.6	–

cell viability [%]
Conditions	Caco-2 [18]	Calu-3 [17]	HepG2 [16]	U2OS [15]	Vero E6 [14]
1 nM	94.4	93	89.1	94.5	88.1
10 nM	35	73.8	50.3	56.7	84.4
100 nM	42.8	27.8	8.3	9.5	2.2
1000 nM	34.9	14.5	-0.4	2.5	2.8
10000 nM	38.6	9.8	0.1	1	1.8

COc1cc2c(cc1OC)-c1c/c(=N\c3c(C)cc(C)cc3C)n(C)c(=O)n1CC2 [trequinsin]
Conditions	SARS-CoV-2 infection rate, [8] [%]	cell count, [7] [%]	cell viability, Caco-2 [18] [%]	cell viability, Calu-3 [17] [%]	cell viability, HepG2 [16] [%]	cell viability, U2OS [15] [%]	cell viability, Vero E6 [14] [%]	morphology score, [1]
1 nM	–	–	97.5	102	102	96.8	92.2	–
10 nM	–	–	91.9	89.5	94.4	99.7	97.1	–
100 nM	–	–	97.2	94.3	102	97.6	97	–
0.3 µM	97	100	–	–	–	–	–	0.06
1000 nM	–	–	97	100	92.8	99.6	92.7	–
3 µM	93	103	–	–	–	–	–	0.26
10 µM	59	111	–	–	–	–	–	0.67
10000 nM	–	–	86.4	85	84.1	95.5	89.1	–
30 µM	19	110	–	–	–	–	–	0.75

drug-induced phospholipidosis [%], A549-ACE2
Conditions	0.3 µM	0.833333 µM	3.33333 µM	6.66667 µM	10 µM	30 µM
24 h	3.52	0.24	10.1	3.08	1.51	20.8
48 h	3.24	1.48	5.48	3.57	5.51	32.1
72 h	4.95	1.02	3.84	4.01	6.79	–

Conditions	drug sensitivity score	relative viability EC50 [nM]
Caco-2 [6]	–	> 10000
Caco-2 [13]	0	–
Calu-3 [5]	–	> 10000
Calu-3 [12]	0.2	–
HepG2 [4]	–	> 10000
HepG2 [11]	0.9	–
U2OS [3]	–	> 10000
U2OS [10]	0	–
Vero E6 [2]	–	> 10000
Vero E6 [9]	0	–

CC(C)[C@]12O[C@H]1[C@@H]1O[C@]13[C@]1(O[C@H]1C[C@H]1C4=C(CC[C@@]13C)C(=O)OC4)[C@@H]2O [triptolide]
Conditions	drug sensitivity score	relative viability EC50 [nM]
Caco-2 [6]	–	5.8
Caco-2 [13]	29.2	–
Calu-3 [5]	–	12.1
Calu-3 [12]	27.1	–
HepG2 [4]	–	3.6
HepG2 [11]	39.2	–
U2OS [3]	–	6.3
U2OS [10]	38.2	–
Vero E6 [2]	–	10.8
Vero E6 [9]	35.8	–

cell viability [%]
Conditions	Caco-2 [18]	Calu-3 [17]	HepG2 [16]	U2OS [15]	Vero E6 [14]
1 nM	84.5	108	79.4	94	101
10 nM	56.5	71.5	30	34.2	55.4
100 nM	24.7	25.8	4.6	1.5	1.6
1000 nM	24.7	34.9	7.7	1.8	5.4
10000 nM	27.6	34.2	6.2	2.1	5.1

C[C@H](CCC(=O)NCCS(=O)(=O)O)[C@H]1CC[C@H]2[C@@H]3[C@@H](O)C[C@@H]4C[C@H](O)CC[C@]4(C)[C@H]3CC[C@]12C [ursodeoxycholyltaurine]
Conditions	drug sensitivity score	relative viability EC50 [nM]
Caco-2 [6]	–	> 10000
Caco-2 [13]	0	–
Calu-3 [5]	–	> 10000
Calu-3 [12]	0	–
HepG2 [4]	–	> 10000
HepG2 [11]	0	–
U2OS [3]	–	> 10000
U2OS [10]	0	–
Vero E6 [2]	–	> 10000
Vero E6 [9]	0	–

cell viability [%]
Conditions	Caco-2 [18]	Calu-3 [17]	HepG2 [16]	U2OS [15]	Vero E6 [14]
1 nM	103	106	94.5	97.8	105
10 nM	94.9	93.9	96.7	97.4	110
100 nM	87.4	100	85.1	98.9	100
1000 nM	91.8	104	97.7	97.2	101
10000 nM	108	97	96.8	98.4	97.2
